Measurements published in patent US20060069132A1, “Azolecarboxamide herbicides” (priority 2004, published 2006).

Tests used:
corn = experiment: Test C pre-/postemergence herbicide test; format: in vivo, Zea mays
Method in brief: (§1)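 Visual injury scores run from 0 (no effect) to 100 (complete control), assessed relative to untreated controls 12 to 14 days after treatment in the greenhouse. Chemicals were formulated in a non-phytotoxic solvent mixture with surfactant and applied to soil after planting or to emerged plants at the 1- to 4-leaf stage.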

rice = experiment: Test B pre-/postemergence herbicide test; format: in vivo, Oryza sativa; settings: for Plant response rating, Rice / Rice plant response rating (0 to 100 scale): preemergence
Method in brief: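 Formulation: non-phytotoxic solvent mix with surfactant. Timing: preemergence on seed and postemergence on 2–18 cm plants, applied concurrently. Readout after 13–15 d greenhouse: visual 0–100 control rating against controls.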

johnsongrass = experiment: Test C pre-/postemergence herbicide test; format: in vivo, Sorghum halepense
Method in brief: as §1

large crabgrass [1] = experiment: Test C pre-/postemergence herbicide test; format: in vivo, Digitaria sanguinalis
Method in brief: as §1

eastern black nightshade = experiment: Test C pre-/postemergence herbicide test; format: in vivo, Solanum ptycanthum; settings: for Plant response rating (0 = no effect, 100 = complete control), Nightshade / Plant response rating, Nightshade: preemergence; for Nightshade plant response rating: Preemergence, scale 0 to 100, 0 no effect, 100 complete control
Method in brief: as §1

redroot pigweed = experiment: Test A pre-/postemergence herbicide test; format: in vivo, Amaranthus retroflexus; settings: for Plant response rating, Pigweed: Postemergence; for Pigweed plant response rating: Preemergence
Method in brief: (§2)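 Pre: seeded sandy loam, directed soil spray, compound in non-phytotoxic solvent + surfactant. Post: 1–2-leaf plants (2–10 cm), sprayed to runoff. Greenhouse ~10 d; visual injury vs untreated, 0–100 scale.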

large crabgrass [2] = experiment: Test A pre-/postemergence herbicide test; format: in vivo, Digitaria sanguinalis; settings: for Plant response rating, Crabgrass, Large: Postemergence; for Crabgrass, Large plant response rating: Preemergence
Method in brief: as §2

[3] = 125 g ai/ha, scale 0 (no effect) to 100 (complete control), visual, 12 to 14 days, preemergence
[4] = 250 g ai/ha, scale 0 to 100 (0 no effect, 100 complete control), visual, 12 to 14 days, preemergence
[5] = Preemergence, 500 g ai/ha, scale 0 to 100, 0 no effect, 100 complete control
[6] = 125 g ai/ha, scale 0 (no effect) to 100 (complete control), visual, 12 to 14 days
[7] = 250 g ai/ha, scale 0 to 100 (0 no effect, 100 complete control), visual, 12 to 14 days
[8] = 62 g ai/ha, preemergence, scale 0 to 100
[9] = 250 g ai/ha, scale 0-100, preemergence
[10] = 500 g ai/ha, scale 0 to 100 (0 no effect, 100 complete control), visual, 12 to 14 days, preemergence
[11] = 125 g ai/ha, 0 = no effect, 100 = complete control
[12] = 500 g ai/ha, visual rating, 0 = no effect, 100 = complete control
[13] = 500 g ai/ha, scale 0 to 100 (0 no effect, 100 complete control), visual, 12 to 14 days
[14] = 500 g ai/ha, 0 to 100 scale, 0 no effect, 100 complete control
[15] = 2000 g ai/ha, 0 to 100 scale, 0 no effect, 100 complete control
[16] = 500 g ai/ha, visual rating, 0 to 100 scale (0 no effect, 100 complete control)
[17] = 125 g ai/ha, scale 0-100, preemergence
[18] = Postemergence, 500 g ai/ha, scale 0 to 100
[19] = Postemergence, 125 g ai/ha, scale 0 to 100, 0 no effect, 100 complete control
[20] = Postemergence, 250 g ai/ha, scale 0 to 100, 0 no effect, 100 complete control
[21] = postemergence, 62 g ai/ha, scale 0 to 100

C=CCn1nc(C(C)(C)C)cc1C(=O)Nc1cccc(C(=O)NCC)c1 [Compound 56]
Plant response rating (0 = no effect, 100 = complete control), Corn (corn; 62 g ai/ha, preemergence): 0 | Plant response rating, Corn (corn; [3]): 0 | Plant response rating, Corn (corn; [4]): 0 | Corn plant response rating (corn; [5]): 0 | Rice plant response rating (rice; Preemergence, 500 g ai/ha, scale 0 to 100): 70 | Plant response rating, Rice (rice; 125 g ai/ha, 0 to 100 scale, 0 is no effect, 100 is complete control): 40 | Plant response rating (0 = no effect, 100 = complete control), Johnsongrass (johnsongrass; 62 g ai/ha, preemergence): 55 | Plant response rating, Johnsongrass (johnsongrass; [3]): 70 | Plant response rating, Johnsongrass (johnsongrass; [4]): 85 | Johnsongrass plant response rating (johnsongrass; [5]): 90 | Plant response rating (0 = no effect, 100 = complete control), Crabgrass, Large (large crabgrass [1]; 62 g ai/ha, preemergence): 95 | Plant response rating, Crabgrass, Large (large crabgrass [1]; [3]): 100 | Plant response rating, Crabgrass, Large (large crabgrass [1]; [4]): 100 | Crabgrass, Large plant response rating (large crabgrass [1]; [5]): 100 | Plant response rating (0 = no effect, 100 = complete control), Nightshade (eastern black nightshade; 62 g ai/ha): 90 | Plant response rating, Nightshade (eastern black nightshade; [6]): 95 | Plant response rating, Nightshade (eastern black nightshade; [7]): 95 | Nightshade plant response rating (eastern black nightshade; 500 g ai/ha): 95

CCn1nc(C(C)(C)C)cc1C(=O)Nc1ccc(OC)c(OC)c1 [Compound 298]
Plant response rating, Corn (corn; [8]): 0 | Plant response rating, Corn (corn; [3]): 10 | Plant response rating, Corn (corn; [9]): 15 | Plant response rating, Corn (corn; [10]): 30 | Rice plant response rating (0 to 100 scale) (rice; [11]): 40 | Plant response rating, Rice (rice; [12]): 60 | Plant response rating, Johnsongrass (johnsongrass; [8]): 20 | Plant response rating, Johnsongrass (johnsongrass; [3]): 40 | Plant response rating, Johnsongrass (johnsongrass; [9]): 60 | Plant response rating, Johnsongrass (johnsongrass; [10]): 90 | Plant response rating, Crabgrass, Large (large crabgrass [1]; [8]): 85 | Plant response rating, Crabgrass, Large (large crabgrass [1]; [3]): 95 | Plant response rating, Crabgrass, Large (large crabgrass [1]; [9]): 100 | Plant response rating, Crabgrass, Large (large crabgrass [1]; [10]): 100 | Plant response rating, Nightshade (eastern black nightshade; 62 g ai/ha, scale 0 to 100): 100 | Plant response rating, Nightshade (eastern black nightshade; [6]): 100 | Plant response rating, Nightshade (eastern black nightshade; 250 g ai/ha, scale 0-100): 100 | Plant response rating, Nightshade (eastern black nightshade; [13]): 100

CCn1nc(C(C)(C)C)cc1C(=O)Nc1cc(C(=O)N(C)OC)ccc1F [Compound 244]
Plant response rating, Corn (corn; [8]): 0 | Plant response rating, Corn (corn; [3]): 10 | Plant response rating, Corn (corn; [9]): 10 | Plant response rating, Corn (corn; [10]): 45 | Rice plant response rating (0 to 100 scale) (rice; [11]): 60 | Plant response rating, Rice (rice; [12]): 80 | Plant response rating, Johnsongrass (johnsongrass; [8]): 60 | Plant response rating, Johnsongrass (johnsongrass; [3]): 95 | Plant response rating, Johnsongrass (johnsongrass; [9]): 95 | Plant response rating, Johnsongrass (johnsongrass; [10]): 100 | Plant response rating, Crabgrass, Large (large crabgrass [1]; [8]): 100 | Plant response rating, Crabgrass, Large (large crabgrass [1]; [3]): 100 | Plant response rating, Crabgrass, Large (large crabgrass [1]; [9]): 100 | Plant response rating, Crabgrass, Large (large crabgrass [1]; [10]): 100 | Plant response rating, Nightshade (eastern black nightshade; 62 g ai/ha, scale 0 to 100): 100 | Plant response rating, Nightshade (eastern black nightshade; [6]): 100 | Plant response rating, Nightshade (eastern black nightshade; 250 g ai/ha, scale 0-100): 100 | Plant response rating, Nightshade (eastern black nightshade; [13]): 100

CCN1N=C(C(C)(C)C)CC1C(=O)Nc1cc(C(=O)N2CC=CC2)ccc1F (racemic) [Compound 310]
Plant response rating, Corn (corn; [3]): 0 | Plant response rating, Corn (corn; [9]): 5 | Plant response rating, Corn (corn; [10]): 10 | Rice plant response rating (0 to 100 scale) (rice; [11]): 40 | Plant response rating, Rice (rice; [12]): 80 | Plant response rating, Johnsongrass (johnsongrass; [8]): 0 | Plant response rating, Johnsongrass (johnsongrass; [3]): 10 | Plant response rating, Johnsongrass (johnsongrass; [9]): 20 | Plant response rating, Johnsongrass (johnsongrass; [10]): 80 | Plant response rating, Crabgrass, Large (large crabgrass [1]; [8]): 30 | Plant response rating, Crabgrass, Large (large crabgrass [1]; [3]): 70 | Plant response rating, Crabgrass, Large (large crabgrass [1]; [9]): 100 | Plant response rating, Crabgrass, Large (large crabgrass [1]; [10]): 100 | Plant response rating, Nightshade (eastern black nightshade; 62 g ai/ha, scale 0 to 100): 30 | Plant response rating, Nightshade (eastern black nightshade; [6]): 35 | Plant response rating, Nightshade (eastern black nightshade; 250 g ai/ha, scale 0-100): 100 | Plant response rating, Nightshade (eastern black nightshade; [13]): 100

CCn1nc(C2(C)CC2)cc1C(=O)Nc1cc(C(=O)N2CC=CC2)ccc1F [Compound 301]
Plant response rating, Corn (corn; [8]): 10 | Plant response rating, Corn (corn; [3]): 10 | Plant response rating, Corn (corn; [9]): 40 | Plant response rating, Corn (corn; [10]): 45 | Rice plant response rating (0 to 100 scale) (rice; [11]): 10 | Plant response rating, Rice (rice; [12]): 70 | Plant response rating, Johnsongrass (johnsongrass; [8]): 30 | Plant response rating, Johnsongrass (johnsongrass; [9]): 85 | Plant response rating, Johnsongrass (johnsongrass; [10]): 95 | Plant response rating, Crabgrass, Large (large crabgrass [1]; [8]): 90 | Plant response rating, Crabgrass, Large (large crabgrass [1]; [3]): 100 | Plant response rating, Crabgrass, Large (large crabgrass [1]; [9]): 100 | Plant response rating, Crabgrass, Large (large crabgrass [1]; [10]): 100 | Plant response rating, Nightshade (eastern black nightshade; 62 g ai/ha, scale 0 to 100): 90 | Plant response rating, Nightshade (eastern black nightshade; [6]): 95 | Plant response rating, Nightshade (eastern black nightshade; 250 g ai/ha, scale 0-100): 100 | Plant response rating, Nightshade (eastern black nightshade; [13]): 100

CCNC(=O)c1ccc(F)c(NC(=O)c2cn(C(C)(C)C)nc2CC)c1 [Compound 193]
Plant response rating, Corn (corn; [8]): 10 | Plant response rating, Corn (corn; [3]): 60 | Plant response rating, Corn (corn; [9]): 95 | Corn plant response rating (corn; [5]): 100 | Rice plant response rating (0 to 100 scale) (rice; [11]): 80 | Plant response rating, Rice (rice; 500 g ai/ha, visual rating 0-100, 0 no effect, 100 complete control): 100 | Plant response rating, Johnsongrass (johnsongrass; [8]): 60 | Plant response rating, Johnsongrass (johnsongrass; [3]): 85 | Plant response rating, Johnsongrass (johnsongrass; [9]): 90 | Johnsongrass plant response rating (johnsongrass; [5]): 100 | Plant response rating, Crabgrass, Large (large crabgrass [1]; [8]): 40 | Plant response rating, Crabgrass, Large (large crabgrass [1]; [3]): 85 | Plant response rating, Crabgrass, Large (large crabgrass [1]; [9]): 85 | Crabgrass, Large plant response rating (large crabgrass [1]; [5]): 100 | Plant response rating, Nightshade (eastern black nightshade; 62 g ai/ha, scale 0 to 100): 0 | Plant response rating, Nightshade (eastern black nightshade; [6]): 50 | Plant response rating, Nightshade (eastern black nightshade; 250 g ai/ha, scale 0-100): 85 | Nightshade plant response rating (eastern black nightshade; 500 g ai/ha): 100

C=Cn1nc(C(C)(C)C)cc1C(=O)Nc1cccc(C(=O)N(CC)CC)c1 [Compound 34]
Plant response rating, Pigweed (redroot pigweed; [14]): 90 | Plant response rating, Pigweed (redroot pigweed; [15]): 90 | Pigweed plant response rating (redroot pigweed; [16]): 100 | Pigweed plant response rating (redroot pigweed; [15]): 100 | Plant response rating (0 = no effect, 100 = complete control), Corn (corn; 62 g ai/ha, preemergence): 0 | Plant response rating, Corn (corn; [17]): 0 | Plant response rating, Corn (corn; [4]): 0 | Corn plant response rating (corn; [18]): 70 | Plant response rating, Corn (corn; [19]): 30 | Plant response rating, Corn (corn; [20]): 50 | Corn plant response rating (corn; [5]): 0 | Plant response rating, Corn (corn; [21]): 20 | Plant response rating (0 = no effect, 100 = complete control), Johnsongrass (johnsongrass; 62 g ai/ha, preemergence): 50 | Plant response rating, Johnsongrass (johnsongrass; [17]): 80 | Plant response rating, Johnsongrass (johnsongrass; [4]): 100 | Johnsongrass plant response rating (johnsongrass; [18]): 80 | Plant response rating, Johnsongrass (johnsongrass; [19]): 70 | Plant response rating, Johnsongrass (johnsongrass; [20]): 70 | Johnsongrass plant response rating (johnsongrass; [5]): 100 | Plant response rating, Johnsongrass (johnsongrass; [21]): 70 | Plant response rating (0 = no effect, 100 = complete control), Crabgrass, Large (large crabgrass [1]; 62 g ai/ha, preemergence): 80 | Plant response rating, Crabgrass, Large (large crabgrass [1]; [17]): 100 | Plant response rating, Crabgrass, Large (large crabgrass [1]; [4]): 100 | Crabgrass, Large plant response rating (large crabgrass [1]; [18]): 60 | Plant response rating, Crabgrass, Large (large crabgrass [1]; [19]): 40 | Plant response rating, Crabgrass, Large (large crabgrass [1]; [20]): 60 | Crabgrass, Large plant response rating (large crabgrass [1]; [5]): 100 | Plant response rating, Crabgrass, Large (large crabgrass [1]; [21]): 20 | Plant response rating, Crabgrass, Large (large crabgrass [2]; [14]): 30 | Plant response rating, Crabgrass, Large (large crabgrass [2]; [15]): 50 | Crabgrass, Large plant response rating (large crabgrass [2]; [16]): 60 | Crabgrass, Large plant response rating (large crabgrass [2]; [15]): 100 | Plant response rating (0 = no effect, 100 = complete control), Nightshade (eastern black nightshade; 62 g ai/ha): 10 | Plant response rating, Nightshade (eastern black nightshade; [7]): 90 | Nightshade plant response rating (eastern black nightshade; 500 g ai/ha): 100
